The source of these data is patent US7435747B2, “Guanidine and amidine derivatives as factor Xa inhibitors” (Sanofi-Aventis Deutschland GmbH, priority 2000, dated 2008).

T1 sequence (P00742 235-488 limits assumed): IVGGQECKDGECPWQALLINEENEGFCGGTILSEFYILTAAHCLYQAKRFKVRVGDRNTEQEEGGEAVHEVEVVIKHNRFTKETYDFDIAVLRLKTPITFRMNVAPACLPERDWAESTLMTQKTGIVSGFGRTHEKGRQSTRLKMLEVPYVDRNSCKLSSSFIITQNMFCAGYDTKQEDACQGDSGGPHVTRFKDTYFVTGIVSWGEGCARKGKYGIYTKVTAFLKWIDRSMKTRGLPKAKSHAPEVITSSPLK
T1 sequence (P00742 41-179 partner limits assumed): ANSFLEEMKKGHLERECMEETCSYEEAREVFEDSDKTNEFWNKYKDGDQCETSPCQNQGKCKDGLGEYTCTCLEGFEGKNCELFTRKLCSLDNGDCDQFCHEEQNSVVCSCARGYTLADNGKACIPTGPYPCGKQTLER

One test has as its target T1, human factor Xa (Homo sapiens, UniProt P00742).
T1 construct: 25 μl human factor Xa (Enzyme Research Laboratories, Inc; South Bend, Ind.); purchased Enzyme Research Laboratories, Inc; South Bend, Ind
As to the kind of experiment: Factor Xa chromogenic assay (substrate S-2765). The format is biochemical. To be noted: Ki calculated from IC50 corrected for substrate competition; 25° C., 0.5 nM enzyme, 140 μM substrate S-2765; read-out: Ki(FXa), inhibition constant for inhibition of factor Xa. As for the experimental part:
Purified enzymes are used in chromogenic assays.
The IC50 was determined by combining in appropriate wells of a Costar half-area microtiter plate 25 μl human factor Xa (Enzyme Research Laboratories, Inc.; South Bend, Ind.) in TBS-PEG; 40 μl 10% (v/v) DMSO in TBS-PEG (uninhibited control) or various concentrations of the compound to be tested diluted in 10% (v/v) DMSO in TBS-PEG; and substrate S-2765 (N(α)-benzyloxycarbonyl-D-Arg-Gly-L-Arg-p-nitroanilide; Kabi Pharmacia, Inc.; Franklin, Ohio) in TBS-PEG.
The assay was performed by pre-incubating the compound of formula I plus enzyme for 10 min. Then the assay was initiated by adding substrate to obtain a final volume of 100 μl. The initial velocity of chromogenic substrate hydrolysis was measured by the change in absorbance at 405 nm using a Bio-tek Instruments kinetic plate reader (Ceres UV900HDi) at 25° C. during the linear portion of the time course (usually 1.5 min after addition of substrate). The enzyme concentration was 0.5 nM and substrate concentration was 140 μM.
A word on the Ki: it is a measure of affinity in units of concentration, obtained from inhibition or displacement. With `CC(=N)N1CCC(CNC(=O)c2ccc(C)c(OCCc3ccc(Cl)cc3Cl)c2)CC1` [Example 12, 3-[2-(2,4-Dichloro-phenyl)-ethoxy]-N-[1-(10-imino-ethyl)-piperidin-4-ylmethyl]-4-methyl-benzamide; compound with trifluoro-acetic acid], the Ki was 140 nM. Same read-out and setting: to `Cc1ccc(C(=O)NCC2CCN(C(=N)N)CC2)cc1OCCc1ccc(Cl)cc1Cl` [Example 13, N-(1-Carbamimidoyl-piperidin-4-ylmethyl)-3-[2-(2,4-dichloro-phenyl)-ethoxy]-4-methyl-benzamide; compound with trifluoro-acetic acid] belongs 173 nM.

The test is the same for the next values; noted with them: read-out: Ki(FXa), inhibition constant for inhibition of factor Xa.
Take `COC(=O)[C@@H](NC(=O)c1cc(O)cc(OCCc2ccc(Cl)cc2Cl)c1)C1CCN(C(=N)N)CC1` [Example 1, (S)-(1-Carbamimidoyl-piperidin-4-yl)-{3-[2-(2,4-dichloro-phenyl)-ethoxy]-5-hydroxy-benzoylamino}-acetic acid methyl ester]: the Ki was 2120 nM.

As for `N=C(N)N1CCC(CNC(=O)c2cc(O)c(Br)c(OCCc3ccc(Cl)cc3Cl)c2)CC1` [Example 2, 4-Bromo-N-(1-carbamimidoyl-piperidin-4-ylmethyl)-3-[2-(2,4-dichloro-phenyl)-ethoxy]-5-hydroxy-benzamide], the Ki amounted to 13.7 nM. As for `N=C(N)N1CCC(CNC(=O)c2cc(O)cc(OCCc3ccc(Cl)cc3Cl)c2)CC1` [Example 4], the Ki was found to be 464 nM. On to `COC(=O)[C@H](CC1CCN(C(=N)N)CC1)NC(=O)c1cc(O)c(C)c(OCCCc2ccc(Cl)cc2Cl)c1` [Example 6], for which the Ki came to 2280 nM.

As for `Cc1c(O)cc(C(=O)NCC2CCN(C(=N)N)CC2)cc1OCCc1ccc(Cl)cc1Cl` [Example 3, N-(1-Carbamimidoyl-piperidin-4-ylmethyl)-3-[2-(2,4-dichloro-phenyl)-ethoxy]-5-hydroxy-4-methyl-benzamide], the Ki was determined as 58.5 nM.
